Measured values published in patent US20240142382A1, “METHODS AND COMPOSITIONS FOR CALIBRATED LABEL-FREE SURFACE-ENHANCED RAMAN SPECTROSCOPY” (Virginia Tech Intellectual Properties, Inc., priority 2021, published 2024).

Columns and labels:
[1] = tested on: MDA-MB-231 cells; assay: label-free SERS mapping with PLS-DA of living cells treated with PTX dosages; format: cell-based, human; conditions: 1.5 nM PTX, MDA-MB-231, PLS-DA after ERS calibration
[2] = tested on: HCC-1806; conditions: HCC-1806 triple-negative breast cancer cells; read-out: half-maximal inhibition concentration (IC50); cited from earlier work
[3] = tested on: HCC-1806 cells; assay: label-free SERS mapping with PLS-DA of living cells treated with PTX dosages; format: cell-based, human; conditions: 1.5 nM, 5 nM and 15 nM PTX, HCC-1806, after ERS calibration

For `CC(=O)O[C@H]1C(=O)[C@@]2(C)[C@H]([C@H](OC(=O)c3ccccc3)[C@]3(O)C[C@H](OC(=O)[C@H](O)[C@@H](NC(=O)c4ccccc4)c4ccccc4)C(C)=C1C3(C)C)[C@]1(OC(C)=O)CO[C@@H]1C[C@@H]2O` [PTX, paclitaxel], the “changes of SERS-measured molecular profiles versus control group (0 nM)” value [1] is listed as “not enough to elicit significant changes”, the IC50 [2] is listed as 1.5 nM and the “separation of PLS-DA scatters of control group (0 nM) from PTX treated groups” value [3] is listed as “completely separate”.
